The nature of one data set: LogD. Format: physicochemical. The note with it: pH 7.4. The source says:
(§1) In the above table, the physicochemical data, e.g., solubility, were obtained following standard protocols known in the field (see, e.g., Reis et al., Mini Rev Med Chem., 2010, 10(11):1071-6; Avdeef et al., Expert Opin Drug Metab Toxicol., 2005, 1(2):325-42; Bharate et al., Comb Chem High Throughput Screen., 2016, 19(6):461-9; and Jain et al., J Pharm Biomed Anal., 2013, 86:11-35); and the biochemical data, i.e., potency for ETA/ETB, were obtained following the protocols known in the field (see, e.g., Kirkby et al., Br J Pharmacol., 2008, 153(6):1105-19; and Maguire et al., Br J Pharmacol., 2014, 171(24):5555-72).

The next data set in a line: Permeability (PAMPA). The note with it: rating in words. Format: in vitro ADME.
Text: as §1
A general note: PAMPA measures passive passage across an artificial lipid membrane.

Data set [1] is described as follows: Pharmacokinetics after topical or oral administration in the rat. Type of data set: in vivo, Brown Norway rats. How it is done:
After the administrations, the animals (N=2) were euthanized at different time points (e.g. 4 and 8 hours) and tissues were collected for analysis. List of tissues collected include plasma, retina/retinal pigment epithelium (RPE)/choroid, vitreous humor and aqueous humor.

For a further data set, the system named is ETA/ETB receptor. Nature of the data set: ETA/ETB selectivity (specificity). Type of data set: biochemical. The note with it: ETA versus ETB, rating in words.
Text: as §1

The nature of the next data set: Solubility. Type of data set: physicochemical.
Text: as §1

Another data set concerns the target T1, ETA receptor (Homo sapiens, UniProt P25101).
T1 sequence (P25101 21-427): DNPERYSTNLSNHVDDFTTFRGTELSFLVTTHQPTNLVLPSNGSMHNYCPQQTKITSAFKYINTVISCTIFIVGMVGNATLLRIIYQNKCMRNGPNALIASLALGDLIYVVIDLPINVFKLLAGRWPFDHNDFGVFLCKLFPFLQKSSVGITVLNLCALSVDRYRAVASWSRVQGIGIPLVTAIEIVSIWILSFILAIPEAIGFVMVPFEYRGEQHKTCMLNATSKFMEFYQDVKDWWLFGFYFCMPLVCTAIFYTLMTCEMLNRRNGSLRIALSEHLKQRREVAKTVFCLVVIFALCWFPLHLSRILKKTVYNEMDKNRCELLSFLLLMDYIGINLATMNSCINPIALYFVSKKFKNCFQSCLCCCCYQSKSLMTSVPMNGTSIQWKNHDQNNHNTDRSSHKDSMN
Nature of the data set: Functional potency for ETA receptor. Format: biochemical. The note with it: rating in words.
Text: as §1

Data set [2] concerns elevated intraocular pressure (IOP). Nature of the data set: Morrison's rat model of glaucoma (elevated IOP). The note with it: topical eye drops 100 μg per dose, five days a week, four weeks. Format: in vivo, Brown Norway rats. The source says:
Adult male and female retired breeder Brown Norway rats (approximate age groups of 8 to 11 months) were obtained from Envigo (Indianapolis, Ind.). Baseline IOP measurements and pattern electroretinogram (PERG) amplitudes were collected prior to the surgery for elevation of IOP (to ensure that the IOP and PERG amplitudes were in the expected range of values). IOP was elevated in one eye (left eye) of the rats, while the corresponding right eyes served as contralateral controls. The Morrison method to elevate IOP in rats was carried out by injection of 50 μL of hypertonic saline through the episcleral veins to sclerose the trabecular meshwork. IOP was measured twice a week throughout the entire duration of the experiment. […] After detecting an elevation of IOP for two consecutive days, topical administration of eye drops (20 μL (100 μg) per dose of the tested compounds in the IOP elevated eye) was commenced and carried out for five days a week for a total of four weeks. In the 4th week of treatment, PERG analysis was carried out and rats were sacrificed by an overdose of pentobarbital (Fatal-Plus). Aqueous humor was collected from the rat eyes, frozen and shipped for analysis. Retinal flat mounts were prepared, immunostained with the RGC marker, Brn3a antibody and surviving RGCs were counted in two eccentricities (central and peripheral). For this study, the Morrison's model was used to induce ocular hypertension in adult male retired breeder Brown Norway rats as previously described by Morrison et al., (Morrison J C, Moore […], Gold […], Johnson E C. A rat model of chronic pressure-induced optic nerve damage. Exp Eye Res. 1997; 64(1):85-96). The immunostained retinal flat mounts were obtained to measure the retinal ganglion cell (RGC) counts. To obtain immunostained retinal flat mounts, the animals were euthanized after the treatments and then their eyes were enucleated. The eye cups were fixed overnight at 4° C. in 4% paraformaldehyde (PFA) and retinal flat mounts were prepared for collecting images. The retinal ganglion cell (RGC) counting was conducted using the images of immunostained retinal flat mounts. The images were uploaded to ImageJ, a photo editor designed for biology research (Rasband, 1997-2018) and the labeled retinal ganglion cells were counted manually in two eccentricities (central and peripheral). […] Pattern ERG (PERG) was used to assess the RGC function. […] Briefly, PERG signals were acquired from a DTL-plus electrode placed on the lower part of the corneal surface and the PERG waves were analyzed using the EMWIN software (LKC). The difference between the amplitude of the major positive (P1) and negative (N2) waves were calculated to […] amplitude.

The target of the next data set is T2, ETB receptor (Homo sapiens, UniProt P24530).
T2 sequence (P24530 27-442): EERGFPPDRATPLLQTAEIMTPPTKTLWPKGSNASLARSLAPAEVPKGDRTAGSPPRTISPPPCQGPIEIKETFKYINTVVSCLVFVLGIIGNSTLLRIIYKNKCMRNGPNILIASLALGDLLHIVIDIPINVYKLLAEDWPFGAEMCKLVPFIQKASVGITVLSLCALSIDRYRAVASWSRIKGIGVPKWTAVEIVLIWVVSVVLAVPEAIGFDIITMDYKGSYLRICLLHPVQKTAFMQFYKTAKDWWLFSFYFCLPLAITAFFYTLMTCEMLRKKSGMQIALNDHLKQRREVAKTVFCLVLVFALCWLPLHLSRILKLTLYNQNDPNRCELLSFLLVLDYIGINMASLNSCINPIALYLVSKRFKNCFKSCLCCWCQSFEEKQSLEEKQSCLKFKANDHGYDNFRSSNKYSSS
Nature of the data set: Functional potency for ETB receptor. Format: biochemical.
Text: as §1

A short description of another data set: Stability in solid state. Type of data set: physicochemical. Conditions: 2 h @ l25° C.
Text: as §1

Values joined by “and” are separate entries in the source; they are usually repeats but may differ in a detail not shown here. Equal entries are not always repeated. Where two headings read alike, the source gives them in different places. Some results are limits rather than exact numbers.

For `CCCCCS(=O)(=O)N(CCC)CCN1C[C@H](c2ccc3c(c2)OCO3)[C@@H](C(=O)O)[C@@H]1c1ccc(OC)c(F)c1` [A-182086, (2R,3R,4S)-4-(2H-1,3-benzodioxol-5-yl)-2-(3-fluoro-4-methoxyphenyl)-1-[2-(N-propylpentane-1-sulfonamido)ethyl]pyrrolidine-3-carboxylic acid], in “LogD”, the logD was found to be 2.3. Further, the “Permeability (rating)” value in the data set “Permeability (PAMPA)” was “Mid-High”. In addition, the “Detection in retina/RPE/choroid” value in [1] (oral, 50 mg/kg) is on record as “detectable”. Moreover, in data set [1] (topical eye drop 100 μg, 4 and 8 hours post-administration), the “Detection in retina/RPE/choroid, aqueous humor and vitreous humor” value is “detected”. In addition, the “Specificity (rating)” value in the data set on ETA/ETB receptor is reported as “Low specificity”. The solubility in the data set “Solubility” (aqueous buffer, pH 7, amorphous form, read-out: Solubility at pH 7) was 173 µg/mL and 298 µM; in the data set “Solubility” (ethyl acetate, organic solvent or mixture, read-out: Solubility in Ethyl Acetate), > 10600 µg/mL and > 18400 µM; in “Solubility” (pH 2, simulated gastric fluid, read-out: Solubility at pH 2), 92.5 µg/mL and 160 µM. The “Solubility in Ethyl Acetate (rating)” value in “Solubility” (ethyl acetate, rating in words) is “Good”. The “Functional Potency for ETA and ETB Receptors (rating)” value on ETA receptor is “High potency”. Besides, the “RGC function, pattern electroretinogram (PERG) changes” value in data set [2] was “maintained RGC function”. Also, the “Retinal ganglion cell (RGC) counts, peripheral retina” value in data set [2] is reported as “prevented RGC loss”. The same compound returned an IC50 against ETB receptor of 3.48 nM. In “Stability in solid state”, the “Stability in Solid State (rating)” value was “unstable”. In the data set “Stability in solid state”, the “Stability in Solid State, remaining” value is recorded as “about 87% remaining/”.

Usually logD stands for the decadic logarithm of the distribution of all forms, ionised or not, between an organic phase and buffer at a given pH. As a reminder, the solubility is how much of the substance goes into solution per volume. Broadly, the IC50 is the concentration that inhibits the measured activity by half. Higher therefore signals a need for much substance.

These data come from patent US11738007B2, “Treatment of glaucoma using endothelin receptor antagonists” (Perfuse Therapeutics, Inc., priority 2019, dated 2023).
